# Source: PubChem BioAssay (NCI)
# Values joined by “and” are separate entries in the source; they are usually repeats but may differ in a detail not shown here. Equal values may be shown once.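 Exposure lasted 48 hours, with cells grown in 96-well plates and compounds tested at five concentrations. Here, GI50 denotes the concentration required for 50% inhibition of growth. TGI is the concentration that stops growth completely.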
# Tests used:
# Assay in all cases: NCI tumour cell line growth inhibition, 48 h
# [1] = system: A549 NSCLC
# [2] = system: HT29 colon
# [3] = system: KM12 colon
# [4] = system: M14 melanoma
# [5] = system: MOLT-4 leukemia
# [6] = system: NCI-H226 lung
# [7] = system: RPMI-8226 leukemia
# [8] = system: SK-MEL-5 melanoma
# [9] = system: SK-OV-3 ovarian
# [10] = system: U251 CNS
Structure (SMILES),GI50 [1] [µM],TGI [1] [µM],GI50 [2] [µM],TGI [2] [µM],GI50 [3] [µM],TGI [3] [µM],GI50 [4],TGI [4] [µM],GI50 [5] [µM],TGI [5] [µM],GI50 [6] [µM],TGI [6] [µM],GI50 [7] [µM],TGI [7] [µM],GI50 [8] [µM],TGI [8] [µM],GI50 [9] [µM],TGI [9] [µM],GI50 [10] [µM],TGI [10] [µM]
CCC[CH2][Sn]1([CH2]CCC)[O]C(=O)c2cc(C)ccc2[O]1,1.92,3.32,1.24,2.56,1.15,2.7,0.342 µM,1.5,0.301,1.09,1.85,3.37,0.193,0.599,0.854,2.11,1.58,2.99,0.462,1.54
C[C@]12CCCC(=O)C1C[C@H](C(=O)O)CC2 (stereo not given in full),,> 100,,> 100,,> 100,,> 100,,> 100,,> 100,,> 100,,,,> 100,,> 100
OC(c1ccccc1)c1c(-c2ccccc2)oc(-c2ccccc2)c1C(O)c1ccccc1 (stereo not given),,20.5,,23.1,,18.9,,21.9,,22,,21.9,,14,,23.6,,30.1,,27.6
Cc1sc(/N=C2/NC(=O)CS2)nc1-c1nc(/N=C2/NC(=O)CS2)sc1C,> 50,> 50,32.2,> 50,28.9,> 50,,,19.9,> 50,> 50,> 50,9.59,49.1,31.2,> 50,,,> 50,> 50
Cc1cc2nc3c4ccccc4n(CCN(C)C)c3nc2cc1C,1.28,11.5,0.76,4.26,1.93,9.8,1.51 µM,3.36,0.555,9.9,2.01,6.99,,,1.7,3.19,3.1,20.2,2.01,11.3
CCOC(=O)C1CC/C(=C(/C#N)C(=O)OC)N1 (stereo not given),,> 100,,,,> 100,,> 100,,> 100,,,,> 100,,> 100,,> 100,,> 100
C=C(C)[C@@H]1CC[C@]2(C)[C@H](C=CC3=C4C[C@@](C)(CO)CC[C@]4(C)CC[C@]32C)[C@@]1(C)CCCN,1.6,3.18,1.63,3.28,1.6,3.02,1.69 µM,3.34,,,,,,,,,1.72,3.17,1.64,3.32
NC(=O)NC(=O)C1CCCCC1C(=O)O (stereo not given),,> 100,,> 100,,> 100,,> 100,,,,> 100,,> 100,,> 100,,> 100,,> 100
CC(C)NC(=O)O/N=C1\CCC2[C@@H]3CC=C4C[C@@H](OC(=O)NC(C)C)CC[C@]4(C)C3CC[C@]12C (stereo not given in full),,5.11,,8.87,,3.73,,1.95,,4.81,,> 100,,2.96,,,,13.5,,2.8
Cc1cc(C)c2[s+]snc2c1,,> 100,,> 100,,> 100,,> 100,,> 100,,> 100,,,,> 100,,> 100,,> 100
COC(=O)C(=O)C1CCCCC(C2=NC3NN=C(N)N3C2=O)C1=O (stereo not given),,> 100,,> 100,,> 100,,> 100,,> 100,,> 100,,,,> 100,,> 100,,> 100
NNC(=S)N/N=C/C(Cl)=C(\Cl)C(=O)O,,> 100,,> 100,,,,> 100,,> 100,,> 100,,> 100,,> 100,,,,> 100
CC(C)[O-].CC(C)[O-].[O-]c1cccc2cccnc12.[O-]c1cccc2cccnc12.[Ti+4],41.7,> 100,,,21,50,9.68 µM and 10.8 µM,> 100,,,> 100,> 100,,,25.2,,> 100,> 100,> 100,> 100
CCOc1ccc(NC(=O)CCC(=O)NN)cc1,,> 100,,> 100,,> 100,,> 100,,> 100,,> 100,,> 100,,> 100,,,,> 100
CCCCCc1c(C)[nH]c(/C=c2\[nH]/c(=C3/C=c4ccccc4=N3)cc2OC)c1C,0.0732,0.636,,,0.0511,> 100,0.0295 µM,0.375,0.102,3.85,0.0777,3.95,0.0614,0.682,0.0324,0.11,0.449,4.55,0.067,0.627
Oc1[nH]c2ccc(Cl)cc2c1/C=c1/ccc2c(c1)N=C(c1cc(F)cc(F)c1)N=2,,,,,3.55,> 100,2.18 µM,5.66,3.32,> 100,> 100,> 100,3.31,> 100,4.07,> 100,31.9,> 100,,
CCNCCNc1cc(-c2cccc(C(F)(F)F)c2)c(C#N)c2nc3ccccc3n12,1.48,3,1.24,2.65,1.63,3.13,1.71 µM,3.25,,,1.64,3.64,,,1.76,3.16,2,3.49,1.67,3.08
C=C1CO[C@@H]2C[C@@H]1CC/C(C)=C/CC/C(C)=C/CC[C@@]2(C)O,15.4,33,28.4,94.1,17.4,36,17.9 µM,32.9,1.26,12.4,,,10.9,33.9,18.5,34.5,24,56.6,17.9,32.4
